In patent US20070249607A1, “NK-1 AND SEROTONIN TRANSPORTER INHIBITORS” (Bristol-Myers Squibb Company, priority 2006, published 2007):
Read-outs that look alike come from different tables or passages of the source.

Columns and labels:
[1] = biological target: T1, neurokinin-1 (NK-1) receptor (Homo sapiens, UniProt P25103); test: NK-1 Binding assay ([125I] Substance P competition, U373 cell membranes); details: U373 membranes, [125I] Substance P displacement, read-out: NK-1 IC50
T1 construct: a human glioblastoma-astrocytoma cell line that endogenously expresses the neurokinin-1 (NK-1) receptor; endogenous in cells; host or cells: U373 human glioblastoma-astrocytoma cells (membranes)
T1 sequence (P25103 whole entry): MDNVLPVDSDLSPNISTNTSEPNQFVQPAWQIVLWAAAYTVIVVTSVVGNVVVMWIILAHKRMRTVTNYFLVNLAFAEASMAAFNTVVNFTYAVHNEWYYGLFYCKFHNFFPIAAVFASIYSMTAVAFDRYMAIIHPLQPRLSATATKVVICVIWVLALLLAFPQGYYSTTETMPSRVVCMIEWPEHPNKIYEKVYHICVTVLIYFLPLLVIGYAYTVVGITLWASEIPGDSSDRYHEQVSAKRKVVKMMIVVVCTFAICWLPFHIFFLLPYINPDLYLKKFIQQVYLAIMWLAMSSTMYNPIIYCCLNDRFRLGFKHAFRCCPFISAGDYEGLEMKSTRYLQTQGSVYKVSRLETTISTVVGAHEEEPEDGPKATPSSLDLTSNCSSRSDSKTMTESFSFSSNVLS
Procedure, shortened: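 Membranes were prepared from U373 human glioblastoma-astrocytoma cells, which express NK-1 endogenously, in 50 mM Tris-HCl pH 7.4 with 3 mM MnCl2, BSA and protease inhibitors. IC50 taken as the midpoint of the specific-binding displacement curve.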

[2] = biological target: T2, human serotonin transporters (Homo sapiens, UniProt P31645); test: Serotonin transporter binding assay ([3H]-citalopram competition, HEK-hSERT cell membranes)
T2 construct: expressed in transfected cells
T2 sequence (P31645 whole entry): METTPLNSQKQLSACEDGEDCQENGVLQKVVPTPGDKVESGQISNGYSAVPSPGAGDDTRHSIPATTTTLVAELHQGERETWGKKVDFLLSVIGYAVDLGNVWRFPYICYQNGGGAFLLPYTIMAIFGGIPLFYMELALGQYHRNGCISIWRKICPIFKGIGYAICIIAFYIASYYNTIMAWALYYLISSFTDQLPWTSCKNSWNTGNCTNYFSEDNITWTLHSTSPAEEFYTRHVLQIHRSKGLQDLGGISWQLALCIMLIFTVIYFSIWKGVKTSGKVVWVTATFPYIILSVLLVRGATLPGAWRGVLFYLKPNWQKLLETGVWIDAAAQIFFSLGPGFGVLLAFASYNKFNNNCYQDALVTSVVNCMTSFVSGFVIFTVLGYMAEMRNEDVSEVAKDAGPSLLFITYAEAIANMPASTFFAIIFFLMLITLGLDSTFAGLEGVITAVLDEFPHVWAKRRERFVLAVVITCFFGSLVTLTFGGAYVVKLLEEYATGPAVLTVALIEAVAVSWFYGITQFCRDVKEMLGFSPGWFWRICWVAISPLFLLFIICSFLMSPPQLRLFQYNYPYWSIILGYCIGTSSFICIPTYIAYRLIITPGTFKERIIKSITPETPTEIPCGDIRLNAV
Procedure, shortened: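 Competition binding against 1 nM [3H]-citalopram (1 hr, 25 °C, Tris pH 7.4 with NaCl/KCl) on stably transfected HEK-hSERT cell membranes, bound ligand collected on filters. Fluoxetine (10 μM) defined nonspecific binding; curve midpoint gives IC50, convertible to Ki by Cheng–Prusoff.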

[3] = Table 2, HEK-hSERT membranes, [3H]-citalopram displacement, read-out: SERT IC50
[4] = Table 1, HEK-hSERT membranes, [3H]-citalopram displacement, read-out: SERT IC50

Question: CN1CCC(COCc2cc(-c3ccc(F)c(Cl)c3)cc(C(F)(F)F)c2)(c2ccccc2)CC1 was tested. Which IC50 ([1]; Table 2) did it give?
Answer: 0.01 to 100 nM

Question: And the IC50 [2]?
Answer: 0.01 to 100 nM

Question: What does the source list for CCS(=O)(=O)c1ccc(-c2cc(COCC3(c4ccccc4)CCNCC3)cc(C(F)(F)F)c2)cc1?
Answer: IC50 ([1]; Table 2): 100 to 300 nM; IC50 [2, 3]: 0.01 to 100 nM

Question: How did the IC50 ([1]; Table 2) turn out when Cc1ccc(C)c(-c2cc(COCC3(c4ccccc4)CCNCC3)cc(C(F)(F)F)c2)c1 was run?
Answer: > 300 nM

Question: And the IC50 [2, 3]?
Answer: 0.01 to 100 nM

Question: How did the IC50 ([1]; Table 2) turn out when N#Cc1ccc(-c2cc(COCC3(c4ccccc4)CCN(C4CC4)CC3)cc(C(F)(F)F)c2)cc1 was run?
Answer: 0.01 to 100 nM

Question: What about the IC50 [2, 3] of the same molecule?
Answer: > 300 nM

Question: With Cc1cc(C)c(-c2cc(COCC3(c4ccccc4)CCNCC3)cc(C(F)(F)F)c2)c(C)c1 as the molecule, how does the IC50 ([1]; Table 1) read?
Answer: > 300 nM

Question: And the IC50 [2, 4]?
Answer: > 300 nM

Question: Which results are given for FC(F)(F)c1cc(COCC2(c3ccccc3)CCNCC2)cc(-c2ccc(Cl)nc2)c1?
Answer: IC50 ([1]; Table 1): 0.01 to 100 nM; IC50 [2, 4]: 0.01 to 100 nM

Question: For Cc1cc(-c2cc(COCC3(c4ccccc4)CCNCC3)cc(C(F)(F)F)c2)cc(C)c1O, which IC50 ([1]; Table 2) is on record?
Answer: > 300 nM

Question: What about the IC50 [2, 3] of the same molecule?
Answer: 0.01 to 100 nM

Question: For CSc1ccc(-c2cc(COCC3(c4ccccc4)CCNCC3)cc(C(F)(F)F)c2)cc1, which IC50 ([1]; Table 1) is on record?
Answer: 0.01 to 100 nM

Question: What about the IC50 [2, 4] of the same molecule?
Answer: 0.01 to 100 nM

Question: What does the source list for COc1cccc(OC)c1-c1cc(COCC2(c3ccccc3)CCNCC2)cc(C(F)(F)F)c1?
Answer: IC50 ([1]; Table 1): 0.01 to 100 nM; IC50 [2, 4]: 0.01 to 100 nM

Question: Which IC50 ([1]; Table 1) does the source give for Fc1ccc(-c2cc(COCC3(c4ccccc4)CCNCC3)cc(C(F)(F)F)c2)c(F)c1 here?
Answer: 0.01 to 100 nM

Question: What about the IC50 [2, 4] of the same molecule?
Answer: 0.01 to 100 nM

Question: For FC(F)(F)Oc1ccc(-c2cc(COCC3(c4ccccc4)CCNCC3)cc(C(F)(F)F)c2)cc1, which IC50 ([1]; Table 1) is on record?
Answer: 0.01 to 100 nM

Question: What about the IC50 [2, 4] of the same molecule?
Answer: 0.01 to 100 nM

Question: Which results are given for Cc1cccc(-c2cc(COCC3(c4ccccc4)CCNCC3)cc(C(F)(F)F)c2)c1C?
Answer: IC50 ([1]; Table 2): 100 to 300 nM; IC50 [2, 3]: 0.01 to 100 nM

Question: Which IC50 ([1]; Table 2) does the source give for CC(=O)c1ccccc1-c1cc(COCC2(c3ccccc3)CCNCC2)cc(C(F)(F)F)c1 here?
Answer: > 300 nM

Question: And the IC50 [2, 3]?
Answer: 100 to 300 nM

Question: For N#Cc1ccc(-c2cc(COCC3(c4ccccc4)CCNCC3)cc(C(F)(F)F)c2)cc1, which IC50 ([1]; Table 1) is on record?
Answer: 0.01 to 100 nM

Question: And the IC50 [2, 4]?
Answer: 0.01 to 100 nM

Question: Which IC50 ([1]; Table 1) does the source give for COc1ccc(-c2cc(COCC3(c4ccccc4)CCNCC3)cc(C(F)(F)F)c2)cc1F here?
Answer: 0.01 to 100 nM

Question: And the IC50 [2, 4]?
Answer: 0.01 to 100 nM

Question: How did the IC50 ([1]; Table 2) turn out when C[C@H](OCC1(c2ccccc2)CCNCC1)c1cc(-c2ccc(C#N)cc2)cc(C(F)(F)F)c1 was run?
Answer: 0.01 to 100 nM

Question: What about the IC50 [2, 3] of the same molecule?
Answer: 100 to 300 nM

Question: COc1ccc(-c2ccncc2)cc1COCC1(c2ccccc2)CCNCC1 was tested. Which IC50 ([1]; Table 1) did it give?
Answer: > 300 nM

Question: And the IC50 [2, 4]?
Answer: 0.01 to 100 nM

Question: What does the source list for COc1ccc(C)cc1-c1cc(COCC2(c3ccccc3)CCNCC2)cc(C(F)(F)F)c1?
Answer: IC50 ([1]; Table 2): > 300 nM; IC50 [2, 3]: 0.01 to 100 nM

Question: How did the IC50 ([1]; Table 1) turn out when COc1ccccc1-c1cc(COCC2(c3ccccc3)CCNCC2)cc(C(F)(F)F)c1 was run?
Answer: 0.01 to 100 nM

Question: And the IC50 [2, 4]?
Answer: 0.01 to 100 nM

Question: For COc1cc(-c2cc(COCC3(c4ccccc4)CCNCC3)cc(C(F)(F)F)c2)c(Cl)cn1, which IC50 ([1]; Table 1) is on record?
Answer: > 300 nM

Question: And the IC50 [2, 4]?
Answer: 0.01 to 100 nM

Question: What does the source list for FC(F)(F)c1cc(COCC2(c3ccccc3)CCNCC2)cc(-c2cccc(-c3ccccc3)c2)c1?
Answer: IC50 ([1]; Table 1): 100 to 300 nM; IC50 [2, 4]: 100 to 300 nM

Question: With CN1CCC(COCc2cc(-c3cc(F)c(C#N)cc3F)cc(C(F)(F)F)c2)(c2ccccc2)CC1 as the molecule, how does the IC50 ([1]; Table 2) read?
Answer: 0.01 to 100 nM

Question: And the IC50 [2]?
Answer: 0.01 to 100 nM

Question: COc1ccc(-c2cc(COCC3(c4ccccc4)CCN(C)CC3)cc(C(F)(F)F)c2)c(F)c1F was tested. Which IC50 ([1]; Table 2) did it give?
Answer: 0.01 to 100 nM

Question: What about the IC50 [2] of the same molecule?
Answer: 0.01 to 100 nM

Question: How did the IC50 ([1]; Table 1) turn out when Fc1ccccc1-c1cc(COCC2(c3ccccc3)CCNCC2)cc(C(F)(F)F)c1 was run?
Answer: 0.01 to 100 nM

Question: What about the IC50 [2, 4] of the same molecule?
Answer: 0.01 to 100 nM

Question: Which IC50 ([1]; Table 1) does the source give for Cc1ccc(-c2cc(COCC3(c4ccccc4)CCNCC3)cc(C(F)(F)F)c2)cc1[N+](=O)[O-] here?
Answer: 0.01 to 100 nM

Question: And the IC50 [2, 4]?
Answer: 0.01 to 100 nM
